# What was measured:
# KCNQ2 = KCNQ2 (Homo sapiens, UniProt O43526); assay: [3H]GABA competition binding to oocytes expressing KCNQ2; conditions: 100 μM, 10 μM 3H-GABA
# Description: Each group of oocytes was placed in a round-bottomed, 15-ml falcon tube, washed with ND96, and then resuspended in ND96 containing 10 μM γ-[2,3-^3H(N)]-aminobutyric acid (^3H-GABA) (Perkin Elmer, Waltham, Mass.) at 25-40 Ci/mMol specific activity either alone, or with 100 μM 2FPG or 100 μM 3FMSG, for a 30 minute incubation at room temperature. Oocytes were then washed four times in 16° C. ND96, transferred to individual wells in a 96 well plate and lysed in 0.2% SDS in ND96. Each oocyte lysate was transferred to a scintillation vial containing 5 ml Cytoscint scintillation cocktail fluid (MP Biomedicals, Santa Ana, Calif.). Vials were capped, shaken, and then allowed to sit at room temperature for at least 30 min before scintillation counting in a Beckmann Coulter LS6500 liquid scintillation counter.
# KCNQ1/KCNE2 = KCNQ1/KCNE2 (Homo sapiens, UniProt P51787); assay: TEVC of KCNQ1/KCNE2 channels; type: cell-based
# Text: (§1) As previously described (12), we generated cRNA transcripts encoding human KCNA1, KCNE1, KCNE2, KCNE3, KCNQ1, KCNQ2, KCNQ3, KCNQ4 or KCNQ5 by in vitro transcription using the T7 polymerase mMessage mMachine kit (Thermo Fisher Scientific), after vector linearization, from cDNA sub-cloned into plasmids incorporating Xenopus laevis β-globin 5′ and 3′ UTRs flanking the coding region to enhance translation and cRNA stability. We quantified cRNA by spectrophotometry. We generated mutant KCNQ2 and KCNQ3 cDNAs by site-directed mutagenesis with a QuikChange kit (Stratagene, San Diego, Calif.) and prepared the cRNAs as above. We injected defolliculated stage V and VI Xenopus laevis oocytes (Ecocyte Bioscience, Austin, Tex. and Xenoocyte, Dexter, Mich., US) with KCNE and/or KCNQ cRNAs (5-20 ng). […]
# (§2) We performed TEVC at room temperature using an OC-725C amplifier (Warner Instruments, Hamden, Conn.) and pClamp10 software (Molecular Devices, Sunnyvale, Calif.) 2-5 days after cRNA injection as described in the section above. […] We recorded currents in response to voltage pulses between −120 or −80 mV and +40 mV at 20 mV intervals from a holding potential of −80 mV, to yield current-voltage relationships, current magnitude, and for quantifying activation rate. We analyzed data using Clampfit (Molecular Devices) and Graphpad Prism software (GraphPad, San Diego, Calif., USA); values are stated as mean±SEM. […]
# KCNQ1/KCNE1 = KCNQ1/KCNE1 (Homo sapiens, UniProt P51787); assay: TEVC of KCNQ1/KCNE1 channels; type: cell-based
# Text: as §1, §2
# KCNQ1-R243A/KCNE1 = KCNQ1-R243A/KCNE1 (Homo sapiens, UniProt P51787, R243A); assay: TEVC of R243A KCNQ1/KCNE1 channels; type: cell-based
# Text: as §1, §2
# KCNQ2/KCNQ3-R242A = KCNQ2/KCNQ3-R242A (Homo sapiens, UniProt O43525+O43526, R242A); assay: TEVC of KCNQ2/KCNQ3-R242A channels; type: cell-based
# Text: as §1, §2
Structure (SMILES),competition with [3H]GABA binding to KCNQ2 (KCNQ2),effect on KCNQ1/KCNE2 (in words) (KCNQ1/KCNE2),"sensitivity of KCNQ1-KCNE1, fold less sensitive than KCNQ1 (KCNQ1/KCNE1)",EC50 (KCNQ1/KCNE1; read-out: EC50 of KCNQ1/KCNE1 activation) [nM],effect of R243A mutation on (E)-2-dodecenal action in KCNQ1/KCNE1 (KCNQ1-R243A/KCNE1),response of KCNQ2/KCNQ3-R242A (in words) (KCNQ2/KCNQ3-R242A)
CS(=O)(=O)N(CC(=O)O)c1cccc(F)c1 [3FMSG],able to compete out GABA binding,,,,,
CCCCCCCCC/C=C/C=O [(E)-2-dodecenal],,minimal effects,> twofold,260 ± 100,reduced (E)-2-dodecenal efficacy twofold,almost as much as wild-type KCNQ2/3

# Source: US12268683B2, “Compounds and methods for synergistic activation of M channels” (THE REGENTS OF THE UNIVERSITY OF CALIFORNIA, priority 2018, dated 2025)
